Measured values: patent US9681664B2, “Macrocyclic picolinamides as fungicides” (Dow Agrosciences LLC, priority 2012, dated 2017)
Read-outs that look alike come from different tables or passages of the source.

Legend:
[1] = test system: Mycosphaerella graminicola; Anamorph: Septoria tritici; experiment: Leaf blotch of wheat (SEPTTR) disease control on wheat seedlings; format: in vivo; conditions: Zymoseptoria tritici, High volume application, 100 ppm
Outline: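 Wheat seedlings (Yuma, first leaf emerged) sprayed to run-off with compound in acetone/water with 110 ppm Triton X-100, or track-sprayed as EC with 0.1% Trycol 5941. Septoria tritici spores inoculated before or after treatment. Dew chambers, then 20 °C greenhouse. Percent disease control derived from severity (0–100%) relative to untreated plants.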

[2] = test system: Puccinia triticina; Synonym: Puccinia recondite f. sp. tritici; experiment: Wheat brown rust (PUCCRT) disease control on wheat seedlings; format: in vivo; conditions: Puccinia triticina, High volume application, 100 ppm
Outline: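 Acetone solutions diluted in nine volumes of water with 110 ppm Triton X-100 sprayed to run-off on first-leaf Yuma wheat seedlings (track spray: EC with 0.1% Trycol 5941). Puccinia triticina spores inoculated before or after treatment; overnight dark dew at 22° C., 100% RH, then greenhouse at 24° C. for disease development.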

[3] = 24 h, 1 Day Protectant, read-out: SEPTTR 1DP disease control
[4] = 72 h, 3 Day Curative, read-out: SEPTTR 3DC disease control
[5] = 24 h, 1 Day Protectant, read-out: PUCCRT 1DP disease control
[6] = 72 h, 3 Day Curative, read-out: PUCCRT 3DC disease control

Measured: pest or weed control at 100 ppm

COc1ccnc(C(=O)N[C@H]2CCC[C@H](OC3CCCC3)[C@@H](OC(=O)C3CCCC3)[C@H](C)OC2=O)c1O [F143]
80 to 100%: [1]; [3] | [2]; [5] | [2]; [6]
0 to 80%: [1]; [4]

COc1ccnc(C(=O)N[C@H]2CCC[C@H](OC3CCCC3)[C@@H](OC(=O)C3CC3)[C@H](C)OC2=O)c1OCOC(C)=O [F144]
80 to 100%: [1]; [3] | [1]; [4] | [2]; [5] | [2]; [6]

COc1ccnc(C(=O)N[C@H]2CCC[C@H](OC3CCCC3)[C@@H](OC(=O)C3CC3)[C@H](C)OC2=O)c1OCOC(=O)C(C)C [F145]
80 to 100%: [1]; [3] | [1]; [4] | [2]; [5] | [2]; [6]

COCCC(=O)Oc1c(OC)ccnc1C(=O)N[C@H]1CCC[C@H](OC2CCCC2)[C@@H](OCC(C)C)[C@H](C)OC1=O [F146]
80 to 100%: [1]; [3] | [1]; [4] | [2]; [5] | [2]; [6]

COCCC(=O)Oc1c(OC)ccnc1C(=O)N[C@H]1CCC[C@H](OC2CCCC2)[C@@H](OC(=O)C2CC2)[C@H](C)OC1=O [F147]
80 to 100%: [1]; [3] | [1]; [4] | [2]; [5] | [2]; [6]

COc1ccnc(C(=O)N[C@H]2CCC[C@H](OC3CCCC3)[C@@H](OC(=O)C3CCCC3)[C@H](C)OC2=O)c1OCOC(C)=O [F148]
80 to 100%: [1]; [3] | [1]; [4] | [2]; [5] | [2]; [6]

COc1ccnc(C(=O)N[C@H]2CCC[C@H](OCC(C)C)[C@@H](OC(=O)C3CCCC3)[C@H](C)OC2=O)c1O [F149]
80 to 100%: [1]; [3] | [2]; [5] | [2]; [6]
0 to 80%: [1]; [4]

COc1ccnc(C(=O)N[C@H]2CCC[C@H](OCC(C)C)[C@@H](OC(=O)C3CCCC3)[C@H](C)OC2=O)c1OCOC(C)=O [F150]
80 to 100%: [1]; [3] | [1]; [4] | [2]; [5] | [2]; [6]

COc1ccnc(C(=O)N[C@H]2CCC[C@H](OCC(C)C)[C@@H](OC(=O)C3CCCC3)[C@H](C)OC2=O)c1OC(C)=O [F151]
80 to 100%: [1]; [3] | [1]; [4] | [2]; [5] | [2]; [6]

COCCC(=O)Oc1c(OC)ccnc1C(=O)N[C@H]1CCC[C@H](OCC(C)C)[C@@H](OC(=O)C2CCCC2)[C@H](C)OC1=O [F152]
80 to 100%: [1]; [3] | [1]; [4] | [2]; [5] | [2]; [6]

CCCO[C@H]1CCC[C@H](NC(=O)c2nccc(OC)c2O)C(=O)O[C@@H](C)[C@@H]1OC1CCCC1 [F153]
80 to 100%: [1]; [3] | [1]; [4] | [2]; [5] | [2]; [6]

COc1ccnc(C(=O)N[C@H]2CCC[C@H](OC(=O)C3CCCC3)[C@@H](OC3CCCC3)[C@H](C)OC2=O)c1O [F156]
80 to 100%: [1]; [3] | [1]; [4] | [2]; [5] | [2]; [6]

COc1ccnc(C(=O)N[C@H]2CCC[C@H](OC(=O)C3CCCC3)[C@@H](OC3CCCC3)[C@H](C)OC2=O)c1OCOC(=O)C(C)C [F157]
80 to 100%: [1]; [3] | [1]; [4] | [2]; [5] | [2]; [6]

COc1ccnc(C(=O)N[C@H]2CCC[C@H](OC(=O)C3CCCC3)[C@@H](OC3CCCC3)[C@H](C)OC2=O)c1OCOC(C)=O [F158]
80 to 100%: [1]; [3] | [1]; [4] | [2]; [5] | [2]; [6]

COc1ccnc(C(=O)N[C@H]2CCC[C@H](OC(=O)C3CCCC3)[C@@H](OC3CCCC3)[C@H](C)OC2=O)c1OC(C)=O [F159]
80 to 100%: [1]; [3] | [1]; [4] | [2]; [5] | [2]; [6]

COc1ccnc(C(=O)N[C@H]2CCC[C@H](Oc3ccc(F)cc3)[C@@H](OC3CCCC3)[C@H](C)OC2=O)c1O [F160]
80 to 100%: [1]; [3] | [1]; [4] | [2]; [5] | [2]; [6]

COc1ccnc(C(=O)N[C@H]2CCC[C@H](Oc3ccc(F)cc3)[C@@H](OC3CCCC3)[C@H](C)OC2=O)c1OCOC(=O)C(C)C [F161]
80 to 100%: [1]; [3] | [1]; [4] | [2]; [5] | [2]; [6]

COc1ccnc(C(=O)N[C@H]2CCC[C@H](Oc3ccc(F)cc3)[C@@H](OC3CCCC3)[C@H](C)OC2=O)c1OCOC(C)=O [F162]
80 to 100%: [1]; [3] | [1]; [4] | [2]; [5]
0 to 80%: [2]; [6]

COc1ccnc(C(=O)N[C@H]2CCC[C@H](OC3CCCC3)[C@@H](OCCCc3ccccc3)[C@H](C)OC2=O)c1O [F163]
0 to 80%: [1]; [4]
80 to 100%: [1]; [3] | [2]; [5] | [2]; [6]

CCCCCO[C@H]1[C@H](C)OC(=O)[C@@H](NC(=O)c2nccc(OC)c2O)CCC[C@@H]1OC1CCCC1 [F164]
80 to 100%: [1]; [3] | [1]; [4] | [2]; [5] | [2]; [6]

COc1ccc(O[C@H]2CCC[C@H](NC(=O)c3nccc(OC)c3O)C(=O)O[C@@H](C)[C@@H]2OC2CCCC2)cc1 [F167]
80 to 100%: [1]; [3] | [1]; [4] | [2]; [5] | [2]; [6]

COc1ccnc(C(=O)N[C@H]2CCC[C@H](OCCCC(F)(F)F)[C@@H](OC3CCCC3)[C@H](C)OC2=O)c1O [F168]
80 to 100%: [1]; [3] | [1]; [4] | [2]; [5] | [2]; [6]

COc1ccnc(C(=O)N[C@H]2CCC[C@H](OCC(C)C)[C@@H](OC3CCCCC3)[C@H](C)OC2=O)c1O [F210]
80 to 100%: [1]; [3] | [1]; [4] | [2]; [5] | [2]; [6]

COc1ccnc(C(=O)N[C@H]2CCC[C@H](OC3CCCCC3)[C@@H](OCC(C)C)[C@H](C)OC2=O)c1O [F211]
80 to 100%: [1]; [3] | [1]; [4] | [2]; [5] | [2]; [6]

COc1ccnc(C(=O)N[C@H]2CCC[C@H](OCC(C)C)[C@@H](OCCCc3ccccc3)[C@H](C)OC2=O)c1OC(C)=O [F214]
80 to 100%: [1]; [3] | [1]; [4] | [2]; [5] | [2]; [6]

COCCC(=O)Oc1c(OC)ccnc1C(=O)N[C@H]1CCC[C@H](OCC(C)C)[C@@H](OCCCc2ccccc2)[C@H](C)OC1=O [F215]
80 to 100%: [1]; [3] | [1]; [4] | [2]; [5] | [2]; [6]

COc1ccnc(C(=O)N[C@H]2CCC[C@H](OCC(C)C)[C@@H](OCCCC(F)(F)F)[C@H](C)OC2=O)c1OC(C)=O [F216]
80 to 100%: [1]; [3] | [1]; [4] | [2]; [5] | [2]; [6]

COc1ccnc(C(=O)N[C@H]2CCC[C@H](OCC(C)C)[C@@H](OC(=O)C3CCCC3)[C@H](C)OC2=O)c1OCOC(=O)C(C)C [F218]
0 to 80%: [1]; [4]
80 to 100%: [1]; [3] | [2]; [5] | [2]; [6]

COc1ccnc(C(=O)N[C@H]2CCC[C@H](OCCCc3ccccc3)[C@@H](OCC(C)C)[C@H](C)OC2=O)c1O [F219]
80 to 100%: [1]; [3] | [2]; [5] | [2]; [6]
0 to 80%: [1]; [4]

C=C(C)CO[C@H]1CCC[C@H](NC(=O)c2nccc(OC)c2O)C(=O)O[C@@H](C)[C@@H]1OCC(C)C [F220]
80 to 100%: [1]; [3] | [1]; [4] | [2]; [5] | [2]; [6]

COc1ccnc(C(=O)N[C@H]2CCC[C@H](OC(=O)C3CCCC3)[C@@H](OCC(C)C)[C@H](C)OC2=O)c1O [F221]
80 to 100%: [1]; [3] | [2]; [5]
0 to 80%: [1]; [4] | [2]; [6]

COc1ccnc(C(=O)N[C@H]2CCC[C@H](OCCCc3ccccc3)[C@@H](OCC(C)C)[C@H](C)OC2=O)c1OCOC(C)=O [F222]
80 to 100%: [1]; [3] | [1]; [4] | [2]; [5] | [2]; [6]

COc1ccnc(C(=O)N[C@H]2CCC[C@H](OC(=O)C3CCCC3)[C@@H](OCC(C)C)[C@H](C)OC2=O)c1OCOC(C)=O [F223]
80 to 100%: [1]; [3] | [1]; [4] | [2]; [5] | [2]; [6]

COc1ccnc(C(=O)N[C@H]2CCC[C@H](OCCCc3ccccc3)[C@@H](OC3CCCC3)[C@H](C)OC2=O)c1O [F224]
80 to 100%: [2]; [5]
0 to 80%: [1]; [3] | [1]; [4] | [2]; [6]
